We go through one compound from patent US11529317B2, “Method of preparing silica nanocapsules and silica nanocapsules” (Agency for Science, Technology and Research, priority 2017, dated 2022).

A short description of this series: Timed release of glycerol in aqueous media, standard enzymatic assay. It is filed as physicochemical. Conditions: control. As to the method: In this example, timed release studies were conducted on the glycerol loaded silica nanocapsules in accordance with various embodiments disclosed herein. Firstly, the synthesized silica nano lens particles were loaded with glycerol. Then, they were suspended in aqueous media and compared with controls.
The percentage of glycerol released from the lens-shaped particles over a period of 80 minutes is estimated using standard enzymatic assay and the results are shown in FIG. 12. […] On the other hand, encapsulated glycerol is released gradually from the lens-shaped particles over a period of approximately two hours.

Structures are written as SMILES.

In the case of `OCC(O)CO` [unencapsulated glycerol, glycerol], the “dissolution of glycerol in water” value is recorded as “instantly dissolves”.
